Measurements taken from patent US20230364118A1, “RIBITOL TREATMENT” (priority 2020, published 2023).
Entries after “also recorded” stand apart in the source; their conditions may differ.

What was measured:
[1] = Metabolic stability, all species; assay type: in vitro ADME, CD-1 mouse, Sprague-Dawley rat, Gottingen minipig, human; conditions: incubated up to 2 hours, all four species
Method: Metabolic stability of ribitol was conducted in liver microsomes, cytosol, and primary hepatocytes, from CD-1 mouse, Sprague-Dawley rat, Gottingen minipig, and human at a concentration of ribitol of 10 μM.
Therefore, metabolism is unlikely to be a major elimination pathway of ribitol.

[2] = in vivo; conditions: minipig, po
Method: The purpose of this study was to determine the MTD following two oral doses 6±0.5 hours apart (Phase 1) and to characterize the toxicity and TK profile following 7 days BID dosing with ribitol with 6±0.5 hours between doses in minipigs.
Minipigs were assessed for viability, clinical signs, body weight, food consumption, clinical pathology (hematology, coagulation, and serum chemistry), organ weights (adrenal glands, brain, heart, kidneys, liver with gall bladder, ovary, spleen, testes, and thymus), and macroscopic pathology at necropsy. Blood was taken for plasma TK analysis on Days 1 and 7.
In Phase 1, Bama minipigs (2/sex/group) were ribitol at 0.3, 1.0, 1.5, or 2.0 g/kg/dose BID (0.6, 2.0, 3.0, or 4.0 g/kg/day) with 5.5 to 6.5 hours between doses. […] Minipigs were assessed for viability, clinical signs, body weight, food consumption, and macroscopic findings at necropsy.
Doses were selected for Phase 2 based on the Phase 1 study results and in compliance with the guidance criteria for high dose selection for general toxicity studies (ICH M3 [R2]). In this phase, minipigs (2/sex/group) were given oral doses of 0 (vehicle control, water), 0.1, 0.3, or 1.0 g/kg/dose ribitol BID with 5.5 to 6.5 hours between doses (0.2, 0.6, or 2.0 g/kg/day, respectively).

[3] = target: hERG (Homo sapiens, UniProt Q12809); assay: in vitro
Method: (§1) Therefore, the concentrations chosen for the definitive hERG assay were 0.1, 0.3, 1, and 3 mM, the detected concentrations of postperfusion solution were 0.101, 0.293, 0.999, and 2.90 mM, respectively.

[4] = Chronic (6 months) administration in mice; assay type: in vivo, mouse
Method: This response subsided at 48 hours after termination of treatment. No other adverse findings have been identified thus far with ribitol.

[5] = system: matriglycan expression; assay: Matriglycan expression in wild type mice; assay type: in vivo, mouse; conditions: one month, 5% ribitol in drinking water; vs vehicle
Method: Wild type mice were dosed with ribitol to assess matriglycan expression in normal mice. The mice were treated for one month with 5% ribitol in drinking water ad libitum. Muscle samples were evaluated for matriglycan expression at the end of dosing via Western Blot analysis (FIG. 9).

[6] = system: L276I FKRP mutant mice; assay: Efficacy in L276I FKRP mutant mouse model; assay type: in vivo
Method: The more common LGMD2i FKRP L276I mutation was studied in a murine model of disease. […] Total running time was increased in these dosing groups (FIG. 7C).
The effect of ribitol on an additional model of LGMD2i was evaluated in mice with the L276I FKRP mutation. L276I mutant mice were treated with ribitol at single daily doses of 0.5 g/kg, 2 g/kg, 5 g/kg, and 5 g/kg BID by oral gavage from the age of 8 weeks when the mild dystrophic phenotype is detectable. The duration of treatment was one year. Ribitol was dissolved in saline and administered by oral gavage. The same methods described above were applied to evaluate expression of matriglycan and muscle pathology.

[7] = in vivo
Method: The purpose of this study was to determine the MTD following a single oral dose (Phase 1) and to characterize the toxicity and toxicokinetic profile following 7 days BID dosing with ribitol (Phase 2).
In Phase 1, Swiss Crl: CD1® mice (5/sex/group) were given ribitol at 0.3, 1.0, 1.5, or 2.0 g/kg/dose BID (0.6, 2.0, 3.0, or 4.0 g/kg/day) with 5 to 7 hours between doses. […] Mice were assessed for viability, clinical signs, body weight, food consumption, and macroscopic findings at necropsy.
Doses were selected for Phase 2 based on the Phase 1 study results and the intended highest clinical dose of 12.0 g/day. In Phase 2, mice (5/sex/group) were given oral doses of 0 (vehicle control, purified water), 0.5, 1.0, or 1.5 g/kg/dose ribitol BID (1.0, 2.0, 3.0 g/kg/day) with 6 hours between doses. Mice were assessed for viability, clinical signs, body weight, food consumption, clinical pathology (hematology and serum chemistry), organ weights (adrenal glands, brain, heart, kidneys, liver with gall bladder, ovaries, spleen, testes, and thymus), and macroscopic pathology at necropsy. Blood was taken from a satellite group of animals (3/sex/timepoint) for plasma TK analysis on Days 1 and 7.

[8] = target: hERG potassium channels (Homo sapiens, UniProt Q12809); assay: cell-based
Method: as §1

[9] = system: P448L FKRP mutant mice; assay: Efficacy in P448L FKRP mutant mouse model; assay type: in vivo
Method: Glycosylation levels increased from undetectable levels to up to 26% in skeletal muscles with a reduction in disease specific pathology such as central nucleated fibers (diaphragm) and fibrosis (heart).
Ribitol was studied in a P448L FKRP mutant mouse model to assess drug-mediated improvements in matriglycan expression and muscle performance. In one study the mutant mice were treated with doses of 10 g/kg daily by oral gavage or 2.5 g/kg ribitol IV injection weekly for one month.
In a long-term efficacy study the FKRP P448L mutant mice were dosed up to one year by oral gavage. Matriglycan expression was increased as measured by immunohistochemistry and Western Blot analysis after six months of dosing at 2 g/kg, 5 g/kg, and 10 g/kg daily (FIG. 3). […] Diaphragmatic performance was assessed using whole body plethysmography (FIGS. 5A-5F).

Chain of hERG (Q12809 whole entry): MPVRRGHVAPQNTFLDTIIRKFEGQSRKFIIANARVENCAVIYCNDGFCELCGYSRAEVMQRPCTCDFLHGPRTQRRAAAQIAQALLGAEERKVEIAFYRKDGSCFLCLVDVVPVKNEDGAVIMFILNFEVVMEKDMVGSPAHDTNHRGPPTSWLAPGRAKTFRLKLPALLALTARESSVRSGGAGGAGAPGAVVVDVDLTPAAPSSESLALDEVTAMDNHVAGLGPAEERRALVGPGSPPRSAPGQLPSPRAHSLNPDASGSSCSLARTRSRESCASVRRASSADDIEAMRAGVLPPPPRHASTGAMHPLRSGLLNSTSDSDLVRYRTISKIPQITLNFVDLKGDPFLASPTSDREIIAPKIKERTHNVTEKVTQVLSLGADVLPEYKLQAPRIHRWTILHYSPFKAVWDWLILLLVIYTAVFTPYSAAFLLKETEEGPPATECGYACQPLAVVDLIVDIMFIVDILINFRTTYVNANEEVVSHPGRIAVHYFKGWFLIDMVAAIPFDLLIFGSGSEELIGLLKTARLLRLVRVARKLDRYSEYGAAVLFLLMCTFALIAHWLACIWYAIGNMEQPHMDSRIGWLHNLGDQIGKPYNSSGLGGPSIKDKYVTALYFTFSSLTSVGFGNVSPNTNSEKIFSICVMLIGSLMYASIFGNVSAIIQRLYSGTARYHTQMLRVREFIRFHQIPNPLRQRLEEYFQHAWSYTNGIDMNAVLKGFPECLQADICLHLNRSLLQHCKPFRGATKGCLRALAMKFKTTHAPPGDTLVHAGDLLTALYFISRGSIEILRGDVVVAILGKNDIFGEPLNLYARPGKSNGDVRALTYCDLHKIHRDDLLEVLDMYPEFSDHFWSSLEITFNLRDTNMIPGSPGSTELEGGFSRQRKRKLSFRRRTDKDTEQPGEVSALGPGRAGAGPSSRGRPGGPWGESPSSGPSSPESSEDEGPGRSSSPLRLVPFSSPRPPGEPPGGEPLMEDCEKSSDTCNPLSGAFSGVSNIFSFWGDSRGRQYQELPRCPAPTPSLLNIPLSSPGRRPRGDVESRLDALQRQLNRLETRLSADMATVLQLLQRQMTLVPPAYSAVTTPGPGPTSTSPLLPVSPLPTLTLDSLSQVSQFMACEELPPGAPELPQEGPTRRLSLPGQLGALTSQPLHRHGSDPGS
Chain of hERG potassium channels (Q12809 whole entry): as above

SMILES: OC[C@@H](O)[C@@H](O)[C@@H](O)CO [ribitol, (2R,3s,4S)-Pentane-1,2,3,4,5-pentol]
- metabolic stability in liver microsomes, cytosol, hepatocytes [1]: stable; also recorded: not metabolized by the enzymes in the liver
- MTD at 14 days ([2]; both, Bama): ≥ 4000 mg/kg/day
- MTD [2]: ≥ 2.0 g/kg/dose BID
- inhibition at 0.03 mM [3]: 3.09%
- inhibition at 0.3 mM [3]: 6.43%
- inhibition at 3 mM [3]: 7.82%
- adverse findings ([4]; 6 months, ≥2 g/kg/day): intestinal bloating and soft stool were observed
- time for response to subside after termination of treatment ([4]; intestinal bloating and soft stool): 48 h
- matriglycan expression (Western Blot) [5]: No increase in matriglycan expression
- creatine kinase ([6]; 1 year oral dosing): reduced with increasing doses
- expression of matriglycan on αDG (immunohistochemistry) ([6]; 1 year oral dosing): increases in a dose dependent manner
- increase in treadmill running distance ([6]; 2 g/kg/day): 14%
- matriglycan expression (immunohistochemistry) ([6]; all treatment groups): increased matriglycan expression
- treadmill running distance ([6]; six months, 2, 5 g/kg, 5 g/kg/dose BID, 3.3 g/kg/dose TID): trend toward improved running distance
- total running time ([6]; six months, same dosing groups): increased
- mortality, clinical signs, body weight, food consumption, macroscopic findings ([7]; Phase 1, up to 2.0 g/kg/dose BID (4.0 g/kg/day), 14-day observation): no treatment-related mortality
- NOAEL at 7 days ([7]; both, CD-1, mouse, in vivo, po): 3000 mg/kg/day
- NOAEL ([7]; mouse, in vivo, po): 1.5 g/kg/dose BID
- IC50 [8]: > 2900 µM
- treadmill exhaustion running distance and running time ([9]; 2, 5 g/kg/day, 5 g/kg/dose BID, 3.3 g/kg/dose TID): improvements
- creatine kinase activity ([9]; 6 months): decreased with increasing doses
- increase in running time ([9]; 6 months, 2 g/kg/day): 50-75%
- increase in treadmill distance ([9]; 6 months, 2 g/kg/day): 50%
- efficacious dose ([9]; FKRP mutant mouse models): 500 mg/kg
- glycosylation levels in skeletal muscles ([9]; from undetectable levels): up to 26%
- muscle histology ([9]; long-term oral dosing): decreases in fibrosis
- levels of ribitol, ribitol-5-phosphate, CDP-ribitol in heart and leg muscles versus untreated mice ([9]; oral or intravenous): up to 4 times
